In patent US8637525B2, “Compounds for the reduction of beta-amyloid production” (Bristol-Myers Squibb Company, priority 2009, dated 2014):

test system: Aβ1-42 production; test: Cellular assay for inhibition of Aβ1-42 production (H4 APP751 SWE clone 8.20); format: cell-based; details: 19 h, H4 APP751 SWE clone 8.20 cells, 19 h incubation; read-out: Activity Rating (Aβ42 cellular IC50), numeric value printed without unit
Experimental: Cellular Assays for Inhibition of Aβ1-40 and Aβ1-42 Production
H4 cells stably transfected with APP751 containing the Swedish mutation (H4 APP751 SWE clone 8.20, developed at BMS) were maintained in log phase through twice weekly passage at a 1:20 split. […] Following incubation for 19 h in 5% CO2 at 37° C., plates were briefly centrifuged (1000 rpm, 5 min). A 10 μl aliquot from each well was transferred to a second assay plate (Costar 3709) for Aβ40 measurements. Antibody cocktails were freshly prepared by dilution into 40 mM Tris-HCl (pH 7.4) with 0.2% BSA and added to assay plates. For Aβ42 measurements, antibodies specific for the Aβ42 neoepitope (565, developed at BMS; conjugated to the Wallac reagent (Perkin Elmer)) and the N-terminal sequence of Aβ peptide (26D6, developed at SIBIA; conjugated to APC (Perkin Elmer)) were mixed and 20 μl of the mixture was added to each well of the incubated cell plate yielding a final concentration of 0.8 ng/well 565 and 75 ng/well 26D6. For the Aβ40 measurements, antibodies specific for the Aβ40 neoepitope (TSD, developed at BMS; conjugated to the Wallac reagent (Perkin Elmer)) and 26D6 as described above were mixed and 20 μl of the mixture was added to the 10 μl aliquots which had been removed previously from the cell plate yielding a final concentration of 1.6 ng/well TSD and 17.5 ng/well 26D6. Assay plates containing antibodies were sealed with aluminum foil and incubated overnight at 4° C. Signal was determined using a Viewlux counter (Perkin Elmer) and IC50 values determined using curve fitting in CurveMaster (Excel Fit based).

| IC50 [nM] | Compound |
| --- | --- |
| 3.8 | CNc1nc(Nc2ccc(-n3cnc(Cl)c3)c(OC)c2)nc2c1CCC2c1ccc(F)cc1 (single isomer, unassigned) [Example 11A, N^2-(4-(4-Chloro-1H-imidazol-1-yl)-3-methoxyphenyl)-7-(4-fluorophenyl)-N^4-methyl-6,7-dihydro-5H-cyclopenta[d]pyrimidine-2,4-diamine] |

same assay, conditions: H4 APP751 SWE clone 8.20 cells, 19 h incubation; class symbols; read-out: Activity Rating (Aβ42 cellular IC50)

| IC50 [nM] | Compound |
| --- | --- |
| 1.5 to 9.9 | CNc1nc(Nc2ccc(-n3ncnc3C)c(F)c2)nc2c1CCC2c1ccccc1 (single isomer, unassigned) [Example 3A, N^2-(3-fluoro-4-(5-methyl-1H-1,2,4-triazol-1-yl)phenyl)-N^4-methyl-7-phenyl-6,7-dihydro-5H-cyclopenta[d]pyrimidine-2,4-diamine] |
| 10 to 100 | CNc1nc(Nc2ccc(-n3ncnc3C)c(F)c2)nc2c1CCC2c1ccccc1 (single isomer, unassigned) [Example 3B, N^2-(3-fluoro-4-(5-methyl-1H-1,2,4-triazol-1-yl)phenyl)-N^4-methyl-7-phenyl-6,7-dihydro-5H-cyclopenta[d]pyrimidine-2,4-diamine] |
| 1.5 to 9.9 | COc1cc(Nc2nc3c(c(N(C)C)n2)CCC3c2ccccc2)ccc1-n1cnc(Cl)c1 (single isomer, unassigned) [Example 4A, N^2-(4-(4-chloro-1H-imidazol-1-yl)-3-methoxyphenyl)-N^4,N^4-dimethyl-7-phenyl-6,7-dihydro-5H-cyclopenta[d]pyrimidine-2,4-diamine] |
| 10 to 100 | COc1cc(Nc2nc3c(c(N(C)C)n2)CCC3c2ccccc2)ccc1-n1cnc(Cl)c1 (single isomer, unassigned) [Example 4B, N^2-(4-(4-chloro-1H-imidazol-1-yl)-3-methoxyphenyl)-N^4,N^4-dimethyl-7-phenyl-6,7-dihydro-5H-cyclopenta[d]pyrimidine-2,4-diamine] |
| 1.5 to 9.9 | CCN(C)c1nc(Nc2ccc(-n3cnc(Cl)c3)c(OC)c2)nc2c1CCC2c1ccccc1 (single isomer, unassigned) [Example 5A, N^2-(4-(4-chloro-1H-imidazol-1-yl)-3-methoxyphenyl)-N^4-ethyl-N^4-methyl-7-phenyl-6,7-dihydro-5H-cyclopenta[d]pyrimidine-2,4-diamine] |
| 10 to 100 | CCN(C)c1nc(Nc2ccc(-n3cnc(Cl)c3)c(OC)c2)nc2c1CCC2c1ccccc1 (single isomer, unassigned) [Example 5B, N^2-(4-(4-chloro-1H-imidazol-1-yl)-3-methoxyphenyl)-N^4-ethyl-N^4-methyl-7-phenyl-6,7-dihydro-5H-cyclopenta[d]pyrimidine-2,4-diamine] |
| 1.5 to 9.9 | COc1cc(Nc2nc3c(c(N4CCC4)n2)CCC3c2ccccc2)ccc1-n1cnc(Cl)c1 (single isomer, unassigned) [Example 6A, 4-(azetidin-1-yl)-N-(4-(4-chloro-1H-imidazol-1-yl)-3-methoxyphenyl)-7-phenyl-6,7-dihydro-5H-cyclopenta[d]pyrimidin-2-amine] |
| 10 to 100 | COc1cc(Nc2nc3c(c(N4CCC4)n2)CCC3c2ccccc2)ccc1-n1cnc(Cl)c1 (single isomer, unassigned) [Example 6B, 4-(azetidin-1-yl)-N-(4-(4-chloro-1H-imidazol-1-yl)-3-methoxyphenyl)-7-phenyl-6,7-dihydro-5H-cyclopenta[d]pyrimidin-2-amine] |
| 1.5 to 9.9 | CNc1nc(Nc2ccc(-n3cnc(Cl)c3)c(OC)c2)nc2c1CCC2c1ccccc1 (single isomer, unassigned) [Example 7A, N^2-(4-(4-chloro-1H-imidazol-1-yl)-3-methoxyphenyl)-N^4-methyl-7-phenyl-6,7-dihydro-5H-cyclopenta[d]pyrimidine-2,4-diamine] |
| 10 to 100 | CNc1nc(Nc2ccc(-n3cnc(Cl)c3)c(OC)c2)nc2c1CCC2c1ccccc1 (single isomer, unassigned) [Example 7B, N^2-(4-(4-chloro-1H-imidazol-1-yl)-3-methoxyphenyl)-N^4-methyl-7-phenyl-6,7-dihydro-5H-cyclopenta[d]pyrimidine-2,4-diamine] |
